13 molecules from patent publication US9637483B2, “Heterocyclic compound” (TAKEDA PHARMACEUTICAL COMPANY LIMITED, priority 2013, dated 2017) can be followed below.

The structures appear in SMILES notation.

What all share (assay type): biochemical
One assay has as its target T1, JAK2 (Homo sapiens, UniProt O60674).
T1 construct: purchased Invitrogen
In words: JAK2 enzyme inhibition test (LANCE method). The following applies: 1 μM test compound; for inhibition at 1 µM: read-out: JAK2 enzyme inhibitory activity (%, 1 μM). Put shortly: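 Recombinant JAK2 (6 ng/mL solution) phosphorylated ULight-JAK1 peptide (300 nM solution) with ATP (45 μM solution) in pH 7.5 HEPES/MgCl2/DTT buffer for 1 hr at room temperature. After EDTA stop and europium anti-phosphotyrosine antibody for 1 hr, TR-FRET read at 665 nm; inhibition relative to enzyme-free wells as 100%.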

For a further assay, the target named is T2, JAK1 (Homo sapiens, UniProt P23458).
T2 construct: purchased Invitrogen
Description: JAK1 enzyme inhibition test (LANCE method). The conditions noted are these: 1 μM test compound; for inhibition at 1 µM: read-out: JAK1 enzyme inhibitory activity (%, 1 μM). Put shortly:
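TR-FRET (LANCE) with ULight-JAK1 peptide (300 nM working solution) and ATP (150 μM working solution) in HEPES pH 7.5, MgCl2, EGTA, DTT buffer; 1 h at room temperature. EDTA stop plus Eu-anti-phosphotyrosine antibody, 665 nm read after 1 h. Inhibition relative to enzyme-free wells as 100%.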

In the next assay the target is T3, TYK2 (Homo sapiens, UniProt P29597).
T3 construct: purchased Invitrogen
In words: TYK2 enzyme inhibition test (LANCE method). The following applies: 1 μM test compound; for inhibition at 1 µM: read-out: TYK2 enzyme inhibitory activity (%, 1 μM). Put shortly:
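Recombinant TYK2 (375 ng/mL working solution) with ULight-JAK1 peptide (300 nM working solution) and ATP (30 μM working solution) in HEPES pH 7.5 buffer with MgCl2, EGTA, DTT, Tween20, BSA, reacted 1 h at RT. EDTA-stopped, Eu-anti-phosphotyrosine TR-FRET read at 665 nm; inhibition relative to enzyme-free wells as 100%.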

The target in another assay is T4, JAK3 (Homo sapiens, UniProt P52333).
T4 construct: purchased Invitrogen
T4 sequence (P52333 1-1124): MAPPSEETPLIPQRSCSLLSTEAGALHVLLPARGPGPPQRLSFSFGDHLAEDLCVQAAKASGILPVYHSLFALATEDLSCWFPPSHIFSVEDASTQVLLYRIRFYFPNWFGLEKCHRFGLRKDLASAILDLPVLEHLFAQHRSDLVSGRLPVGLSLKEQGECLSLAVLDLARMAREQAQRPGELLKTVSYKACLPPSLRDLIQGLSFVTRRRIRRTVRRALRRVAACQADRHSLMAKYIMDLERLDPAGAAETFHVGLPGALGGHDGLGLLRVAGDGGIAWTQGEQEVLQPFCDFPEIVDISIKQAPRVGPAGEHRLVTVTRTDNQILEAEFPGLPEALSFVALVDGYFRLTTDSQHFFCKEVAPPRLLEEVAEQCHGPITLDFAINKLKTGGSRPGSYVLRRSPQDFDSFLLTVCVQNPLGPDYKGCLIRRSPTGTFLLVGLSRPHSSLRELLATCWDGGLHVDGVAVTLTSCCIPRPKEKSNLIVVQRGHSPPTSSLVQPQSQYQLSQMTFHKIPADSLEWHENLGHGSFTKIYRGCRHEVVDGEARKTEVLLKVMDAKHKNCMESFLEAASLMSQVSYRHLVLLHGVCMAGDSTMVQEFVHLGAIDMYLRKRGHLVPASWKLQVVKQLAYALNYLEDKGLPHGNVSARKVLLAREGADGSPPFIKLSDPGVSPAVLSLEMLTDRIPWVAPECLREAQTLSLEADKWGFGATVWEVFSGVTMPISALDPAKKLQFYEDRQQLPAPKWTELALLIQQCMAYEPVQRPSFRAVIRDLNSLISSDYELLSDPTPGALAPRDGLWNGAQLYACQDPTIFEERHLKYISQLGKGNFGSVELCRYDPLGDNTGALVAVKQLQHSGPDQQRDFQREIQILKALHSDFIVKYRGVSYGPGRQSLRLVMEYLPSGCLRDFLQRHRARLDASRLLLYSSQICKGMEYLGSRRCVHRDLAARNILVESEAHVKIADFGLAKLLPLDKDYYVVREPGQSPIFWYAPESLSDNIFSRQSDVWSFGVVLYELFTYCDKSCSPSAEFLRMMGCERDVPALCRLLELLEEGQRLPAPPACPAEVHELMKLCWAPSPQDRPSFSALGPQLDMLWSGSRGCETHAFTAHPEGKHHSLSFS
Description: JAK3 enzyme inhibition test (LANCE method). The following applies: 1 μM test compound; for inhibition at 1 µM: read-out: JAK3 enzyme inhibitory activity (%, 1 μM). Put shortly: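 Recombinant JAK3 (12 ng/mL solution) with ULight-JAK1 peptide (300 nM solution) and ATP (15 μM solution) in HEPES pH 7.5 buffer, 1 h at room temperature. EDTA stop with Eu-anti-phosphotyrosine antibody; TR-FRET at 665 nm. Inhibition relative to enzyme-free wells as 100%.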

T3 sequence (P29597 whole entry): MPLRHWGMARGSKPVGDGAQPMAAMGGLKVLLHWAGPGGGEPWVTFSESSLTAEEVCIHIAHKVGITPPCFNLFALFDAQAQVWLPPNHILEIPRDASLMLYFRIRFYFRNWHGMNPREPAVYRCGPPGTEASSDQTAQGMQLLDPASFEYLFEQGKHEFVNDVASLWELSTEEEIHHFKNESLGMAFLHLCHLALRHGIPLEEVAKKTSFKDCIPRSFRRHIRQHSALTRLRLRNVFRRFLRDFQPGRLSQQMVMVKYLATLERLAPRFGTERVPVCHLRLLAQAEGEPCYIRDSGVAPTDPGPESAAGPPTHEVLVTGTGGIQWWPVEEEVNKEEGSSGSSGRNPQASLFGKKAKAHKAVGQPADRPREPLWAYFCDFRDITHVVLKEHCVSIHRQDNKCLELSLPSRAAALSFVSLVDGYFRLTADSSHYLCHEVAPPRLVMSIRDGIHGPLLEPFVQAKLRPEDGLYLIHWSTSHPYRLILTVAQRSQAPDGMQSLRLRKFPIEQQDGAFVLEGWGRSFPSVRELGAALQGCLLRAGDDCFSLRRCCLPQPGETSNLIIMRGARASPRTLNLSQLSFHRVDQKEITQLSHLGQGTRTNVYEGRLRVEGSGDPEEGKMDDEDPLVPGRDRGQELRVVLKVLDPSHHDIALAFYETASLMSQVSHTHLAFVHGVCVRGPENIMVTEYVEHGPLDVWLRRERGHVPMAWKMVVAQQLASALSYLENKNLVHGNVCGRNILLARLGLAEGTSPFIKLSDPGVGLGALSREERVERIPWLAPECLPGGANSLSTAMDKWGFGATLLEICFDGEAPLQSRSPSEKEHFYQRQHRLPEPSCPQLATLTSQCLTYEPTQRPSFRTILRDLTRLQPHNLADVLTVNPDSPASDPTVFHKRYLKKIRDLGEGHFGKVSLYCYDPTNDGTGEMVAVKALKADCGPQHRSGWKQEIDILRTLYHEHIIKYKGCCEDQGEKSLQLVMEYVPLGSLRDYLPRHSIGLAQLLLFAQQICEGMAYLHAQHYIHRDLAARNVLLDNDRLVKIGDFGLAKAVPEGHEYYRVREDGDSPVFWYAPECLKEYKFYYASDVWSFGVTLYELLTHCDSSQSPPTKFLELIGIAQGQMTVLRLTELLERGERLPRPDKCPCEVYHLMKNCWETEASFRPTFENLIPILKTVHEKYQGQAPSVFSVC
T2 sequence (P23458 whole entry): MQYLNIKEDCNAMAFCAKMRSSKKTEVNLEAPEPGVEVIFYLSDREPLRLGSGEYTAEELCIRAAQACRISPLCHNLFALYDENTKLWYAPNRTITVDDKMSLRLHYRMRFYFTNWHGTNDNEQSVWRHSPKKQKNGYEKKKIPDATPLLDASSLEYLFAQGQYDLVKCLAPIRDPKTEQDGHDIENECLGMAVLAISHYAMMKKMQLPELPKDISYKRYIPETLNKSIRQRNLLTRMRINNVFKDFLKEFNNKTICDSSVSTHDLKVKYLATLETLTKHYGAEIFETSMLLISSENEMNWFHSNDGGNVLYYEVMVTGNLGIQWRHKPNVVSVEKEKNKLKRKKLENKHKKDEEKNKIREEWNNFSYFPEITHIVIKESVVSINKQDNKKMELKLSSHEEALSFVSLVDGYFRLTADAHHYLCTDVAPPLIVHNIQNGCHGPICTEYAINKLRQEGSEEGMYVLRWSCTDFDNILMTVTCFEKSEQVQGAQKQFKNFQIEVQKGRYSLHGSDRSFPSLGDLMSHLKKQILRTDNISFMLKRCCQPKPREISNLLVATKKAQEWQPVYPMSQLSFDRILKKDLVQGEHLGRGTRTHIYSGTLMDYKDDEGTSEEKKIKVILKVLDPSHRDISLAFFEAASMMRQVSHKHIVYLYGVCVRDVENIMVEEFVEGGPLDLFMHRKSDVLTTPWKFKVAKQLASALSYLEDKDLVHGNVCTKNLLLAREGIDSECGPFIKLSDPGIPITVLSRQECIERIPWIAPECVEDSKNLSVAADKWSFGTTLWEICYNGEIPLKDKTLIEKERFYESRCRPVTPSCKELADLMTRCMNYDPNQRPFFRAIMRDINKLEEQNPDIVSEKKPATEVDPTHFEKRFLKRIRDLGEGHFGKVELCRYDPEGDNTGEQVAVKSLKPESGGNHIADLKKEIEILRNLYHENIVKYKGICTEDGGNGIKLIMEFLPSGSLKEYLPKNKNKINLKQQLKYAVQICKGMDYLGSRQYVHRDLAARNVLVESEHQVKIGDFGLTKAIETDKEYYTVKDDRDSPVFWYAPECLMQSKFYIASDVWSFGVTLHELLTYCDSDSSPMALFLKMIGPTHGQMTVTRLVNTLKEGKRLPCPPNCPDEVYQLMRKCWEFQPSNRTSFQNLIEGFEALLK
T1 sequence (O60674 whole entry): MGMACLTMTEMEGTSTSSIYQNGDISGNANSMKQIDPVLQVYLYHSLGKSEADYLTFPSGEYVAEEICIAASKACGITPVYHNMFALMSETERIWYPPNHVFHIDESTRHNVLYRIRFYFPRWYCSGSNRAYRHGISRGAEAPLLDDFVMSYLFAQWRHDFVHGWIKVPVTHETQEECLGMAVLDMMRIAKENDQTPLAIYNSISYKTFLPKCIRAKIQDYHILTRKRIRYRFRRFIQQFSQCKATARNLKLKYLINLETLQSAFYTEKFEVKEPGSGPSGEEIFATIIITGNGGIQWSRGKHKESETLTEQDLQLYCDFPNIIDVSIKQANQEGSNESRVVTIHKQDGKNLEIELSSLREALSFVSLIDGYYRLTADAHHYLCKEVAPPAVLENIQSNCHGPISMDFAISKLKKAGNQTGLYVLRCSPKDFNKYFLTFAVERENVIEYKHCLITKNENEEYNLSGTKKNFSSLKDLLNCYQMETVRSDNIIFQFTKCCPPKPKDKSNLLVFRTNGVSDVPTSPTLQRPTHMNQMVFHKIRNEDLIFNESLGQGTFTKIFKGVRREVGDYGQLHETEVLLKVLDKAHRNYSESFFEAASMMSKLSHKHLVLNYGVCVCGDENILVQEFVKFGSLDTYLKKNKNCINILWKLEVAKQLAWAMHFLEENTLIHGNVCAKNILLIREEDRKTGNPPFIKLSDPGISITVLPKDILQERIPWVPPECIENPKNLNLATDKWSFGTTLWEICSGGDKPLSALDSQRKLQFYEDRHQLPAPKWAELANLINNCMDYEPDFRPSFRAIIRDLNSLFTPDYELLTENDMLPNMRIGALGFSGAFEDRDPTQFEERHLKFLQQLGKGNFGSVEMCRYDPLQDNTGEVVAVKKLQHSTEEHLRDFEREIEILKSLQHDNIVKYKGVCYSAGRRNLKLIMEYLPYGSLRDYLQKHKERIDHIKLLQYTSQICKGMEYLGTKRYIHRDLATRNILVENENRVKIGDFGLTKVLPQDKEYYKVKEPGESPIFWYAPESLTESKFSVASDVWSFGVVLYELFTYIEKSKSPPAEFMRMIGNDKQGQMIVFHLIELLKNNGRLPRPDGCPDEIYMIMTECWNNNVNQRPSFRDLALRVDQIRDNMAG

Regarding `Cn1nc(-c2cn(C(C3CC3)C3CC3)c(=O)c3c(N)n[nH]c23)cc1C1CC1` [Example 161, 3-amino-7-(5-cyclopropyl-1-methyl-1H-pyrazol-3-yl)-5-(dicyclopropylmethyl)-1,5-dihydro-4H-pyrazolo[4,3-c]pyridin-4-one], the inhibition at 1 µM on JAK2 was 99%; at JAK1, 100%; on TYK2, 100%; on JAK3 it was 100%.
`CC(C)[C@H](C)n1cc(-c2cc(N3CCC[C@H]3CO)n(C)n2)c2[nH]nc(N)c2c1=O` [Example 20, 3-amino-7-(5-((2S)-2-(hydroxymethyl)pyrrolidin-1-yl)-1-methyl-1H-pyrazol-3-yl)-5-((2S)-3-methylbutan-2-yl)-1,5-dihydro-4H-pyrazolo[4,3-c]pyridin-4-one]: the inhibition at 1 µM amounted to 98% on JAK2, 95% at JAK1, 99% at TYK2 and 100% at JAK3.
The corresponding values for `CC(C)[C@H](C)n1cc(-c2cc(N3CCCC3)n(C)n2)c2[nH]nc(N)c2c1=O` [Example 27, 3-amino-5-((2S)-3-methylbutan-2-yl)-7-(1-methyl-5-(pyrrolidin-1-yl)-1H-pyrazol-3-yl)-1,5-dihydro-4H-pyrazolo[4,3-c]pyridin-4-one] are 98%, 98%, 100% and 100%.
The corresponding values for `CNC(=O)c1ccc(-c2cc(-c3cn([C@@H](C)C(C)C)c(=O)c4c(N)n[nH]c34)nn2C)cc1` [Example 40, 4-(3-(3-amino-5-((2S)-3-methylbutan-2-yl)-4-oxo-4,5-dihydro-1H-pyrazolo[4,3-c]pyridin-7-yl)-1-methyl-1H-pyrazol-5-yl)-N-methylbenzamide] are 98%, 99%, 100% and 99%.
The corresponding values for `CN(c1cc(-c2cn(-c3c(F)cccc3C#N)c(=O)c3c(N)n[nH]c23)nn1C)C1CCCC1` [Example 123, 2-(3-amino-7-(5-(cyclopentyl(methyl)amino)-1-methyl-1H-pyrazol-3-yl)-4-oxo-1,4-dihydro-5H-pyrazolo[4,3-c]pyridin-5-yl)-3-fluorobenzonitrile] are 94%, 97%, 100% and 95%.
As to `CC(C)N(C)c1cc(-c2cn(-c3c(F)cccc3C#N)c(=O)c3c(N)n[nH]c23)nn1C` [Example 122, 2-(3-amino-7-(5-(isopropyl(methyl)amino)-1-methyl-1H-pyrazol-3-yl)-4-oxo-1,4-dihydro-5H-pyrazolo[4,3-c]pyridin-5-yl)-3-fluorobenzonitrile], the inhibition at 1 µM on JAK2 is 93%; on JAK1, 97%; at TYK2, 101%; at JAK3, 97%.
Consider `Cn1nc(-c2cn(C(C3CC3)C3CC3)c(=O)c3c(N)n[nH]c23)cc1C(F)(F)F` [Example 165, 3-amino-5-(dicyclopropylmethyl)-7-(1-methyl-5-(trifluoromethyl)-1H-pyrazol-3-yl)-1,5-dihydro-4H-pyrazolo[4,3-c]pyridin-4-one], for which the inhibition at 1 µM worked out at 98% on JAK2, 100% on JAK1, 100% at TYK2 and 100% at JAK3.
With `CC(C)[C@H](C)n1cc(-c2cc(N3CCC[C@@H]3CO)n(C)n2)c2[nH]nc(N)c2c1=O` [Example 22, 3-amino-7-(5-((2R)-2-(hydroxymethyl)pyrrolidin-1-yl)-1-methyl-1H-pyrazol-3-yl)-5-((2S)-3-methylbutan-2-yl)-1,5-dihydro-4H-pyrazolo[4,3-c]pyridin-4-one], the inhibition at 1 µM on JAK2 is 98%; on JAK1, 96%; on TYK2, 99%; on JAK3 it was 99%.
For the molecule `CC(C)[C@H](C)n1cc(-c2cc(C(C)(C)C#N)n(C)n2)c2[nH]nc(N)c2c1=O` [Example 57, 2-(3-(3-amino-5-((2S)-3-methylbutan-2-yl)-4-oxo-4,5-dihydro-1H-pyrazolo[4,3-c]pyridin-7-yl)-1-methyl-1H-pyrazol-5-yl)-2-methylpropanenitrile], the inhibition at 1 µM on JAK2, on JAK1, at TYK2 and on JAK3 was 99% each time.
With `Cn1nc(-c2cn(C3CCCC3(C)C)c(=O)c3c(N)n[nH]c23)cc1N1CCOCC1` (stereo not shown) [Example 77, 3-amino-5-(2,2-dimethylcyclopentyl)-7-(1-methyl-5-(morpholin-4-yl)-1H-pyrazol-3-yl)-1,5-dihydro-4H-pyrazolo[4,3-c]pyridin-4-one], the “JAK2 enzyme inhibitory activity (%, 1 μM)” value at JAK2 is 84%. The “JAK1 enzyme inhibitory activity (%, 1 μM)” value at JAK1 turned out to be 79%. For the same molecule, the “TYK2 enzyme inhibitory activity (%, 1 μM)” value at TYK2 turned out to be 96%. Moreover, the “JAK3 enzyme inhibitory activity (%, 1 μM)” value at JAK3 amounted to 90%.
As to `COC1(c2cc(-c3cn(C(C4CC4)C4CC4)c(=O)c4c(N)n[nH]c34)nn2C)CN(S(=O)(=O)C(C)C)C1` [Example 90, 3-amino-5-(dicyclopropylmethyl)-7-(5-(1-(isopropylsulfonyl)-3-methoxyazetidin-3-yl)-1-methyl-1H-pyrazol-3-yl)-1,5-dihydro-4H-pyrazolo[4,3-c]pyridin-4-one], the inhibition at 1 µM on JAK2 turned out to be 99%; at JAK1 it was 96%; on TYK2, 100%; at JAK3, 99%.
With `COC1(c2cc(-c3cn(C(C#N)C(C)C)c(=O)c4c(N)n[nH]c34)nn2C)CCC(F)(F)CC1` (stereo not shown) [Example 139, 2-(3-amino-7-(5-(4,4-difluoro-1-methoxycyclohexyl)-1-methyl-1H-pyrazol-3-yl)-4-oxo-1,4-dihydro-5H-pyrazolo[4,3-c]pyridin-5-yl)-3-methylbutanenitrile], the “JAK2 enzyme inhibitory activity (%, 1 μM)” value on JAK2 was found to be 80%. Moreover, the “JAK1 enzyme inhibitory activity (%, 1 μM)” value at JAK1 is given as 32%. Moreover, the “TYK2 enzyme inhibitory activity (%, 1 μM)” value on TYK2 amounted to 93%. Moreover, on JAK3, the “JAK3 enzyme inhibitory activity (%, 1 μM)” value is recorded as 66%.
Take `Cn1nc(-c2cn(C(C3CC3)C3CC3)c(=O)c3c(N)n[nH]c23)cc1N1CCS(=O)(=O)CC1` [Example 78, 3-amino-5-(dicyclopropylmethyl)-7-(5-(1,1-dioxidothiomorpholin-4-yl)-1-methyl-1H-pyrazol-3-yl)-1,5-dihydro-4H-pyrazolo[4,3-c]pyridin-4-one]: the inhibition at 1 µM at JAK2 was determined as 99%; on JAK1, 98%; on TYK2, 99%; at JAK3, 100%.
